Target: T1, human recombinant IL-17A (Homo sapiens, UniProt Q16552)
T1 construct: purchased R&D Systems 7955-IL/CF
T1 sequence (Q16552 24-155): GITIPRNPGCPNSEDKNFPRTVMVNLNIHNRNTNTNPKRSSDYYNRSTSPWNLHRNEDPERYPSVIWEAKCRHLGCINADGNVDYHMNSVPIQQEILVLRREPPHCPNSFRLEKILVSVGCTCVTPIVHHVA
Test: IL-17A AlphaLISA assay (block binding of IL-17A to its receptor IL-17RA)
Details: compounds pre-incubated with the IL-17A for 24 h at room temperature; read-out: AlphaLISA pIC50 (converted)
Procedure, shortened: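 Compounds pre-incubated 24 h at RT (30 min where flagged) with human IL-17A (7.5 nM stock) before IL-17RA/Fc (5 nM stock), 90 min. Read by AlphaLISA via anti-Fc acceptor and biotin anti-IL-17A/streptavidin donor beads, 680/615 nm. 4-parameter fit; DMSO and 6 μM reference inhibitor as controls; pIC50.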

| IC50 | Compound |
| --- | --- |
| 0.0158 µM | Cn1nccc1C(=O)N[C@H](C(=O)Nc1ccc(-c2cccc(=O)n2C)c(F)c1)C(c1ccccc1)c1ccccc1 [Example 71, (S)—N-(1-((3-fluoro-4-(1-methyl-6-oxo-1,6-dihydropyridin-2-yl)phenyl)amino)-1-oxo-3,3-diphenylpropan-2-yl)-1-methyl-1H-pyrazole-5-carboxamide] |
| 0.0794 µM | Cc1c(-c2ccc(NC(=O)[C@@H](NC(=O)c3ccnn3C)C(c3ccccc3)c3ccccc3)nc2)ccc(=O)n1C [Example 72, (S)—N-(1-((1′,2′-dimethyl-6′-oxo-1′,6′-dihydro-[3,3′-bipyridin]-6-yl)amino)-1-oxo-3,3-diphenylpropan-2-yl)-1-methyl-1H-pyrazole-5-carboxamide] |
| 0.0251 µM | Cc1cncc(C)c1-c1ccc(NC(=O)[C@@H](NC(=O)c2ccnn2C)C(c2ccccc2)c2ccccc2)nc1 [Example 73, (S)—N-(1-((3′,5′-dimethyl-[3,4′-bipyridin]-6-yl)amino)-1-oxo-3,3-diphenylpropan-2-yl)-1-methyl-1H-pyrazole-5-carboxamide] |
| 0.0316 µM | Cc1[nH]ncc1-c1ccc(NC(=O)[C@@H](NC(=O)c2ccnn2C)C(c2ccccc2)c2ccccc2)cc1 [Example 74, (S)-1-methyl-N-(1-((4-(5-methyl-1H-pyrazol-4-yl)phenyl)amino)-1-oxo-3,3-diphenylpropan-2-yl)-1H-pyrazole-5-carboxamide] |
| 0.0316 µM | Cn1nccc1C(=O)N[C@H](C(=O)Nc1ccc(-c2cn(C)c(=O)c3[nH]ncc23)c(F)c1)C(c1ccccc1)c1ccccc1 [Example 75, (S)—N-(1-((3-fluoro-4-(6-methyl-7-oxo-6,7-dihydro-1H-pyrazolo[3,4-c]pyridin-4-yl)phenyl)amino)-1-oxo-3,3-diphenylpropan-2-yl)-1-methyl-1H-pyrazole-5-carboxamide] |
| 0.631 µM | COc1ncc(-c2ccc(NC(=O)[C@@H](NC(=O)c3ccnn3C)C(c3ccccc3)c3ccccc3)cc2)c2cc[nH]c12 [Example 76, (S)—N-(1-((4-(7-methoxy-1H-pyrrolo[2,3-c]pyridin-4-yl)phenyl)amino)-1-oxo-3,3-diphenylpropan-2-yl)-1-methyl-1H-pyrazole-5-carboxamide] |
| 0.126 µM | Cn1nccc1C(=O)N[C@H](C(=O)Nc1ccc(-c2cccc(=O)[nH]2)c(F)c1)C(c1ccccc1)c1ccccc1 [Example 77, (S)—N-(1-((3-fluoro-4-(6-oxo-1,6-dihydropyridin-2-yl)phenyl)amino)-1-oxo-3,3-diphenylpropan-2-yl)-1-methyl-1H-pyrazole-5-carboxamide] |
| 0.0251 µM | Cn1nccc1C(=O)N[C@H](C(=O)Nc1ccc(-c2ccncc2CC(=O)N2CCCC2)cc1)C(c1ccccc1)c1ccccc1 [Example 78, (S)-1-methyl-N-(1-oxo-1-((4-(3-(2-oxo-2-(pyrrolidin-1-yl)ethyl)pyridin-4-yl)phenyl)amino)-3,3-diphenylpropan-2-yl)-1H-pyrazole-5-carboxamide] |
| 0.251 µM | Cn1nccc1C(=O)N[C@H](C(=O)Nc1ccc(-c2cc[n+]([O-])cc2CC(=O)N2CCCC2)cc1)C(c1ccccc1)c1ccccc1 [Example 79, (S)-4-(4-(2-(1-methyl-1H-pyrazole-5-carboxamido)-3,3-diphenylpropanamido)phenyl)-3-(2-oxo-2-(pyrrolidin-1-yl)ethyl)pyridine 1-oxide] |
| 0.316 µM | Cn1nccc1C(=O)N[C@H](C(=O)Nc1ccc(-c2cc(=O)[nH]cn2)c(F)c1)C(c1ccccc1)c1ccccc1 [Example 80, (S)—N-(1-((3-fluoro-4-(6-oxo-1,6-dihydropyrimidin-4-yl)phenyl)amino)-1-oxo-3,3-diphenylpropan-2-yl)-1-methyl-1H-pyrazole-5-carboxamide] |
| 0.0126 µM | Cn1nccc1C(=O)N[C@H](C(=O)Nc1ccc(C2=CCOCC2)cc1)C(c1ccccc1)c1ccccc1 [Example 81, (S)—N-(1-((4-(3,6-dihydro-2H-pyran-4-yl)phenyl)amino)-1-oxo-3,3-diphenylpropan-2-yl)-1-methyl-1H-pyrazole-5-carboxamide] |
| 0.0251 µM | COc1cnccc1-c1ccc(NC(=O)C(NC(=O)c2ccnn2C)C2c3ccccc3-c3ccccc32)cc1 (centres unmarked) [Example 82, N-(1-(9H-fluoren-9-yl)-2-((4-(3-methoxypyridin-4-yl)phenyl)amino)-2-oxoethyl)-1-methyl-1H-pyrazole-5-carboxamide] |
| 0.0631 µM | Cc1c(-c2ccc(NC(=O)[C@@H](NC(=O)c3ccnn3C)[C@H]3CC[C@H](C)CC3)cc2F)ccc(=O)n1C [Example 83, N—((S)-2-((4-(1,2-Dimethyl-6-oxo-1,6-dihydropyridin-3-yl)-3-fluorophenyl)amino)-1-((1r,4S)-4-methylcyclohexyl)-2-oxoethyl)-1-methyl-1H-pyrazole-5-carboxamide] |
| 0.0316 µM | Cc1n[nH]c(C)c1-c1ccc(NC(=O)[C@@H](NC(=O)c2ccnn2C)[C@H]2CC[C@H](C)CC2)cc1 [Example 84, N—((S)-2-((4-(3,5-Dimethyl-1H-pyrazol-4-yl)phenyl)amino)-1-((1r,4S)-4-methylcyclohexyl)-2-oxoethyl)-1-methyl-1H-pyrazole-5-carboxamide] |
| 0.0631 µM | Cn1nccc1C(=O)N[C@H](C(=O)Nc1ccc(-c2c[nH]c(=O)c3[nH]ccc23)cc1)[C@H]1CC[C@H](C)CC1 [Example 85, 1-Methyl-N—((S)-1-((1r,4S)-4-methylcyclohexyl)-2-oxo-2-((4-(7-oxo-6,7-dihydro-1H-pyrrolo[2,3-c]pyridin-4-yl)phenyl)amino)ethyl)-1H-pyrazole-5-carboxamide] |
| 0.251 µM | Cn1nccc1C(=O)N[C@H](C(=O)Nc1ccc(-c2ccncc2CC(=O)N2CCCC2)cc1)[C@H]1CC[C@H](C)CC1 [Example 86, 1-Methyl-N—((S)-1-((1r,4S)-4-methylcyclohexyl)-2-oxo-2-((4-(3-(2-oxo-2-(pyrrolidin-1-yl)ethyl)pyridin-4-yl)phenyl)amino)ethyl)-1H-pyrazole-5-carboxamide] |
| 0.501 µM | Cn1nccc1C(=O)N[C@H](C(=O)Nc1ccc(-c2cc[nH]c(=O)c2)cc1)[C@H]1CC[C@H](C)CC1 [Example 87, 1-Methyl-N—((S)-1-((1r,4S)-4-methylcyclohexyl)-2-oxo-2-((4-(2-oxo-1,2-dihydropyridin-4-yl)phenyl)amino)ethyl)-1H-pyrazole-5-carboxamide] |
| 0.398 µM | Cn1nccc1C(=O)N[C@H](C(=O)Nc1ccc(-c2cccc3nccn23)cc1)[C@H]1CC[C@H](C)CC1 [Example 88, N—((S)-2-((4-(Imidazo[1,2-a]pyridin-5-yl)phenyl)amino)-1-((1r,4S)-4-methylcyclohexyl)-2-oxoethyl)-1-methyl-1H-pyrazole-5-carboxamide] |
| 0.0631 µM | Cc1cncc(C)c1-c1ccc(NC(=O)[C@@H](NC(=O)c2ccnn2C)[C@H]2CC[C@H](C)CC2)nc1 [Example 90, N—((S)-2-((3′,5′-Dimethyl-[3,4′-bipyridin]-6-yl)amino)-1-((1r,4S)-4-methylcyclohexyl)-2-oxoethyl)-1-methyl-1H-pyrazole-5-carboxamide] |
| 0.251 µM | CCn1nccc1C(=O)N[C@H](C(=O)Nc1ccc(-c2ccc(=O)n(C)c2C)cn1)[C@H]1CC[C@H](C)CC1 [Example 91, N—((S)-2-((1′,2′-Dimethyl-6′-oxo-1′,6′-dihydro-[3,3′-bipyridin]-6-yl)amino)-1-((1r,4S)-4-methylcyclohexyl)-2-oxoethyl)-1-ethyl-1H-pyrazole-5-carboxamide] |
| 0.02 µM | CCn1nccc1C(=O)N[C@H](C(=O)Nc1ccc(-c2c(C)cncc2C)cn1)[C@H]1CC[C@H](C)CC1 [Example 92, N—((S)-2-((3′,5′-Dimethyl-[3,4′-bipyridin]-6-yl)amino)-1-((1r,4S)-4-methylcyclohexyl)-2-oxoethyl)-1-ethyl-1H-pyrazole-5-carboxamide] |
| 0.0501 µM | Cn1nccc1C(=O)N[C@H](C(=O)Nc1ccc(C2CCOCC2)cc1)[C@H]1CC[C@H](C)CC1 [Example 93, 1-Methyl-N—((S)-1-((1r,4S)-4-methylcyclohexyl)-2-oxo-2-((4-(tetrahydro-2H-pyran-4-yl)phenyl)amino)ethyl)-1H-pyrazole-5-carboxamide] |
| 0.126 µM | Cn1nccc1C(=O)N[C@H](C(=O)Nc1ccc(C2(O)CCOCC2)cc1)[C@H]1CC[C@H](C)CC1 [Example 94, N—((S)-2-((4-(4-Hydroxytetrahydro-2H-pyran-4-yl)phenyl)amino)-1-((1r,4S)-4-methylcyclohexyl)-2-oxoethyl)-1-methyl-1H-pyrazole-5-carboxamide] |
| 0.1 µM | Cn1nccc1C(=O)N[C@H](C(=O)Nc1ccc(C2=CCOCC2)cc1)[C@H]1CC[C@H](C)CC1 [Example 95, N—((S)-2-((4-(3,6-Dihydro-2H-pyran-4-yl)phenyl)amino)-1-((1r,4S)-4-methylcyclohexyl)-2-oxoethyl)-1-methyl-1H-pyrazole-5-carboxamide] |
| 0.0501 µM | Cc1noc(C)c1-c1ccc(NC(=O)[C@@H](NC(=O)c2ccnn2C)[C@H]2CC[C@H](C)CC2)cc1 [Example 96, N—((S)-2-((4-(3,5-Dimethylisoxazol-4-yl)phenyl)amino)-1-((1r,4S)-4-methylcyclohexyl)-2-oxoethyl)-1-methyl-1H-pyrazole-5-carboxamide] |
| 0.0794 µM | Cc1noc(C)c1-c1ccc(NC(=O)[C@@H](NC(=O)c2ccnn2C)[C@H]2CC[C@H](C)CC2)nc1 [Example 97, N—((S)-2-((5-(3,5-Dimethylisoxazol-4-yl)pyridin-2-yl)amino)-1-((1r,4S)-4-methylcyclohexyl)-2-oxoethyl)-1-methyl-1H-pyrazole-5-carboxamide] |

Source: US20230227427A1, “IL-17A MODULATORS” (SANOFI, priority 2010, published 2023)
